Laboratory results reported in patent publication US20250205260A1, “ADJUNCTIVE TREATMENT OF MYCOBACTERIAL DISEASES” (UNIVERSITY OF SOUTHERN CALIFORNIA, priority 2022, published 2025).
≈ marks a conversion by molar mass, not a printed value. Like-named read-outs stand apart in the source and are kept apart here.

Columns and labels:
M. tuberculosis biofilm = M. tuberculosis biofilm formation inhibition (crystal violet staining); assay type: cell-based, Mycobacterium tuberculosis; conditions: for overall activity against M. tuberculosis: biofilm inhibition, normal growth inhibition and antibiotic synergism assays, preliminary results
Experimental: FIG. 1A-D. Anti-M. tuberculosis biofilm activity of 6-treAz (6-azido-6-deoxy-D-trehalose). The effects of various concentrations of 6-treAz treatment on M. tuberculosis biofilms were monitored by crystal violet (CV) staining assay (A and B). […] The effect of 6-treAz on TreS mediated maltose production. Y-axis is the amount of maltose produced (D).
Planktonic growth and biofilm assays. Evaluation of planktonic growth and biofilm formation inhibition for M. smegmatis was carried out as previously reported for other trehalose analogues (Carbohydr. Res. 2017, 450, 60-66). Evaluation of planktonic growth and biofilm formation inhibition for M. tuberculosis was carried out as previously reported for 6-TreAz (Nat. Commun., 2019, 2928-2928).

M. smegmatis = conditions: cited from earlier work
M. smegmatis biofilm [1] = conditions: cited from earlier work
M. tuberculosis [2] = test: M. tuberculosis planktonic growth inhibition; assay type: cell-based, Mycobacterium tuberculosis
M. tuberculosis [3] = conditions: cited from earlier work
M. aurum = conditions: cited from earlier work
[4] = target: TreS (trehalose synthase) (Mycobacterium tuberculosis, UniProt P9WQ19); test: In vitro TreS assay (maltose production, LC-MS); assay type: biochemical, M. tuberculosis; conditions: 100 μM compound, in vitro TreS enzyme reaction
Experimental: In vitro TreS assay. TreS activity was measured using a 100 μL in vitro enzyme reaction containing 40 mM MOPS (pH 7.0), 10 mM trehalose, and 20 ng of purified TreS enzyme in the presence or absence of 6-treAz or validamycin A (a known TreS inhibitor). The reaction was initiated by adding TreS enzyme, incubated at 37° C., and then quenched by heating and adding acetonitrile containing 0.2% formic acid. After centrifugation, supernatants were used for LC-MS to quantify maltose product.

[5] = system: M. tuberculosis trehalose catalytic shift (metabolome); test: Metabolomics profiling / trehalose catalytic shift; assay type: cell-based, Mycobacterium tuberculosis; conditions: M. tuberculosis biofilm, trehalose accumulation, depletion of maltose, glucose-P, sedoheptulose-P
M. smegmatis biofilm [6] = test: M. smegmatis biofilm formation inhibition; assay type: cell-based, Mycobacterium smegmatis
[7] = system: H37Rv lab strain (M. tuberculosis); assay type: cell-based, Mycobacterium tuberculosis; conditions: for IC95 2-treNH2: antibiotic in combination with 2-treNH2; for IC95 4-treNH2: antibiotic in combination with 4-treNH2; for IC95 6-treNH2: antibiotic in combination with 6-treNH2
[8] = M. tuberculosis IC95 shift assay

TreS (trehalose synthase), sequence (P9WQ19 whole entry, looked up): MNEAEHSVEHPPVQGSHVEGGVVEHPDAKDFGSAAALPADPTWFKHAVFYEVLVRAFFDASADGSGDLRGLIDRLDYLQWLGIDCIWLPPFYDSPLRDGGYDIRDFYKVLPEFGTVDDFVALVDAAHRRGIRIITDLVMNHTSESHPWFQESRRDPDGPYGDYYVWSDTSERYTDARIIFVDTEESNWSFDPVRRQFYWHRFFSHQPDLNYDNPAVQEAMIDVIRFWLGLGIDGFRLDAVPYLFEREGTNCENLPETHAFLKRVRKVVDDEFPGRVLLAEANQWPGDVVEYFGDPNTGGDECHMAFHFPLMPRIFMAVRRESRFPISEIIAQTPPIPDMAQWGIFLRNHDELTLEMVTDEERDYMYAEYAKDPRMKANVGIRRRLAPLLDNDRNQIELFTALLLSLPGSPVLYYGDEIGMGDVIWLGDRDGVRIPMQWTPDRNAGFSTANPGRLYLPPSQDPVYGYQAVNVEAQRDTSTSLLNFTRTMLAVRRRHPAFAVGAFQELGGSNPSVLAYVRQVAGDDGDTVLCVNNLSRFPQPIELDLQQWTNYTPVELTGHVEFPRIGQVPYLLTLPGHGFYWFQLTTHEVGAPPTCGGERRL

[N-]=[N+]=NC[C@H]1O[C@H](O[C@H]2O[C@H](CO)[C@@H](O)[C@H](O)[C@H]2O)[C@H](O)[C@@H](O)[C@@H]1O [6-TreAz, (2R,3S,4S,5R,6R)-2-(azidomethyl)-6-(((2R,3R,4S,5S,6R)-3,4,5-trihydroxy-6-(hydroxymethyl)tetrahydro-2H-pyran-2-yl)oxy)tetrahydro-2H-pyran-3,4,5-triol]
inhibition of M. tuberculosis biofilm formation (M. tuberculosis biofilm): selective inhibitory activity | concentration that significantly interfered with M. tuberculosis biofilm formation (M. tuberculosis biofilm; WT biofilm culture): at least 100 M | inhibition of M. smegmatis planktonic growth (previous research) (M. smegmatis): inhibit growth | inhibition of M. smegmatis biofilm formation (previously known) (M. smegmatis biofilm [1]): known to inhibit | inhibition of M. tuberculosis planktonic growth (M. tuberculosis [2]): no discernible effects | inhibition of M. tuberculosis planktonic growth (previous research) (M. tuberculosis [3]): inhibit growth | inhibition of M. aurum growth (previous research) (M. aurum): inhibit growth | TreS mediated maltose production [4]: abolished | inhibition of the trehalose catalytic shift [5]: blocked | inhibition of the trehalose catalytic shift ([5]; listed as 6-treAz): dose-dependent inhibition

[N-]=[N+]=N[C@@H]1[C@H](O)[C@@H](O)[C@@H](O[C@H]2O[C@H](CO)[C@@H](O)[C@H](O)[C@H]2O)O[C@@H]1CO [4-epi-TreAz, (2R,3R,4S,5S,6R)-2-(((2R,3R,4S,5R,6S)-5-azido-3,4-dihydroxy-6-(hydroxymethyl)tetrahydro-2H-pyran-2-yl)oxy)-6-(hydroxymethyl)tetrahydro-2H-pyran-3,4,5-triol]
inhibition of M. tuberculosis biofilm formation (M. tuberculosis biofilm): do not | inhibition of M. tuberculosis planktonic growth (M. tuberculosis [2]): no inhibitory effects | inhibition of M. smegmatis biofilm formation (M. smegmatis biofilm [6]): no inhibitory effects

N[C@H]1[C@@H](O[C@H]2O[C@H](CO)[C@@H](O)[C@H](O)[C@H]2O)O[C@H](CO)[C@@H](O)[C@@H]1O [2-TreNH2, (2R,3R,4S,5S,6R)-2-(((2R,3R,4R,5S,6R)-3-amino-4,5-dihydroxy-6-(hydroxymethyl)tetrahydro-2H-pyran-2-yl)oxy)-6-(hydroxymethyl)tetrahydro-2H-pyran-3,4,5-triol]
inhibition of M. tuberculosis biofilm formation (M. tuberculosis biofilm): inhibit | antimycobacterial synergy with TB antibiotics ([7]; H37Rv, INH, RIF or BDQ, […]): antimicrobial synergy against H37Rv level similar to that of ΔtreS | effect of co-treatment on IC95 values of isoniazid (INH) or rifampicin (RIF) [7, 8]: significantly reduced | reduction of IC95 value of bedaquiline (BDQ) by co-treatment [7, 8]: not | inhibition of M. tuberculosis planktonic growth (previous research) (M. tuberculosis [3]): exhibited inhibition | inhibition of M. smegmatis biofilm formation (M. smegmatis biofilm [6]): inhibit

[N-]=[N+]=N[C@H]1[C@@H](O[C@H]2O[C@H](CO)[C@@H](O)[C@H](O)[C@H]2O)O[C@H](CO)[C@@H](O)[C@@H]1O [2-TreAz, (2R,3R,4S,5S,6R)-2-(((2R,3R,4R,5S,6R)-3-azido-4,5-dihydroxy-6-(hydroxymethyl)tetrahydro-2H-pyran-2-yl)oxy)-6-(hydroxymethyl)tetrahydro-2H-pyran-3,4,5-triol]
overall activity against M. tuberculosis (M. tuberculosis biofilm): top candidate | inhibition of M. smegmatis planktonic growth (previous research) (M. smegmatis): exhibited planktonic growth inhibition

[N-]=[N+]=N[C@H]1[C@H](O)[C@@H](O)[C@@H](O[C@H]2O[C@H](CO)[C@@H](O)[C@H](O)[C@H]2O)O[C@@H]1CO [4-TreAz, (2R,3R,4S,5S,6R)-2-(((2R,3R,4S,5S,6S)-5-azido-3,4-dihydroxy-6-(hydroxymethyl)tetrahydro-2H-pyran-2-yl)oxy)-6-(hydroxymethyl)tetrahydro-2H-pyran-3,4,5-triol]
overall activity against M. tuberculosis (M. tuberculosis biofilm): did not show activity | inhibition of M. smegmatis planktonic growth (previous research) (M. smegmatis): did not exhibit inhibition | overall activity against M. smegmatis (M. smegmatis biofilm [6]; biofilm inhibition, normal growth inhibition and antibiotic synergism assays): did not show activity

[N-]=[N+]=N[C@@H]1[C@@H](O[C@H]2O[C@H](CO)[C@@H](O)[C@H](O)[C@H]2O)O[C@H](CO)[C@@H](O)[C@@H]1O [2-epi-TreAz, (2R,3R,4S,5S,6R)-2-(((2R,3S,4R,5S,6R)-3-azido-4,5-dihydroxy-6-(hydroxymethyl)tetrahydro-2H-pyran-2-yl)oxy)-6-(hydroxymethyl)tetrahydro-2H-pyran-3,4,5-triol]
inhibition of M. tuberculosis biofilm formation (M. tuberculosis biofilm): can inhibit | inhibition of M. tuberculosis biofilm formation (M. tuberculosis biofilm; at 1 mM): completely blocks | overall activity against M. tuberculosis (M. tuberculosis biofilm): most potent | inhibition of M. tuberculosis biofilm formation (M. tuberculosis biofilm; listed as Epi-2-TreAz): completely inhibits | inhibition of M. tuberculosis planktonic growth (M. tuberculosis [2]): can inhibit | inhibition of M. tuberculosis planktonic growth (M. tuberculosis [2]; at 1 mM): completely blocks | inhibition of M. tuberculosis planktonic growth (M. tuberculosis [2]; listed as Epi-2-TreAz): completely inhibits | inhibition of M. smegmatis biofilm formation (M. smegmatis biofilm [6]): selectively inhibits | inhibition of M. smegmatis biofilm formation (M. smegmatis biofilm [6]; at 1 mM): selectively blocks

N[C@H]1[C@H](O)[C@@H](O)[C@@H](O[C@H]2O[C@H](CO)[C@@H](O)[C@H](O)[C@H]2O)O[C@@H]1CO [4-TreNH2, (2R,3R,4S,5S,6R)-2-(((2R,3R,4S,5S,6S)-5-amino-3,4-dihydroxy-6-(hydroxymethyl)tetrahydro-2H-pyran-2-yl)oxy)-6-(hydroxymethyl)tetrahydro-2H-pyran-3,4,5-triol]
inhibition of M. tuberculosis biofilm formation (M. tuberculosis biofilm): inhibit | inhibition of M. smegmatis planktonic growth (previous research) (M. smegmatis): did not exhibit inhibition | inhibition of M. tuberculosis planktonic growth (M. tuberculosis [2]): inhibits | inhibition of M. smegmatis biofilm formation (M. smegmatis biofilm [6]): did not exhibit activity

COc1nc2ccc(Br)cc2cc1[C@@H](c1ccccc1)[C@@](O)(CCN(C)C)c1cccc2ccccc12 [BDQ, bedaquiline]
IC95 WT [7]: 0.59 µg/mL (≈ 1.06 µM) | IC95 2-treNH2 ([7]; H37Rv): 0.78 µg/mL | IC95 4-treNH2 ([7]; H37Rv): 0.39 µg/mL | IC95 6-treNH2 ([7]; H37Rv): 0.57 µg/mL

NNC(=O)c1ccncc1 [INH, isoniazid]
IC95 WT [7]: 0.28 µg/mL (≈ 2.04 µM) | IC95 2-treNH2 ([7]; H37Rv): 0.21 µg/mL | IC95 4-treNH2 ([7]; H37Rv): 0.44 µg/mL | IC95 6-treNH2 ([7]; H37Rv): 0.33 µg/mL

N[C@@H]1[C@H](O)[C@@H](O)[C@@H](O[C@H]2O[C@H](CO)[C@@H](O)[C@H](O)[C@H]2O)O[C@@H]1CO [4-epi-TreNH2, (2R,3R,4S,5S,6R)-2-(((2R,3R,4S,5R,6S)-5-amino-3,4-dihydroxy-6-(hydroxymethyl)tetrahydro-2H-pyran-2-yl)oxy)-6-(hydroxymethyl)tetrahydro-2H-pyran-3,4,5-triol]
inhibition of M. tuberculosis biofilm formation (M. tuberculosis biofilm): do not | inhibition of M. tuberculosis planktonic growth (M. tuberculosis [2]): no inhibitory effects | inhibition of M. smegmatis biofilm formation (M. smegmatis biofilm [6]): no inhibitory effects

CO[C@H]1/C=C/O[C@@]2(C)Oc3c(C)c(O)c4c(O)c(c(/C=N/N5CCN(C)CC5)c(O)c4c3C2=O)NC(=O)/C(C)=C\C=C\[C@H](C)[C@H](O)[C@@H](C)[C@@H](O)[C@@H](C)[C@H](OC(C)=O)[C@@H]1C [RIF, rifampicin]
IC95 WT [7]: 0.18 µg/mL (≈ 0.219 µM) | IC95 2-treNH2 ([7]; H37Rv): 0.09 µg/mL | IC95 4-treNH2 ([7]; H37Rv): 0.14 µg/mL | IC95 6-treNH2 ([7]; H37Rv): 0.24 µg/mL

N[C@@H]1[C@@H](O[C@H]2O[C@H](CO)[C@@H](O)[C@H](O)[C@H]2O)O[C@H](CO)[C@@H](O)[C@@H]1O [2-epi-TreNH2, (2R,3R,4S,5S,6R)-2-(((2R,3S,4R,5S,6R)-3-amino-4,5-dihydroxy-6-(hydroxymethyl)tetrahydro-2H-pyran-2-yl)oxy)-6-(hydroxymethyl)tetrahydro-2H-pyran-3,4,5-triol]
inhibition of M. tuberculosis biofilm formation (M. tuberculosis biofilm): do not | inhibition of M. tuberculosis planktonic growth (M. tuberculosis [2]): no inhibitory effects | inhibition of M. smegmatis biofilm formation (M. smegmatis biofilm [6]): no inhibitory effects

[N-]=[N+]=N[C@@H]1[C@@H](O)[C@@H](O[C@H]2O[C@H](CO)[C@@H](O)[C@H](O)[C@H]2O)O[C@H](CO)[C@H]1O [3-TreAz, (2R,3R,4S,5S,6R)-2-(((2R,3R,4S,5S,6R)-4-azido-3,5-dihydroxy-6-(hydroxymethyl)tetrahydro-2H-pyran-2-yl)oxy)-6-(hydroxymethyl)tetrahydro-2H-pyran-3,4,5-triol]
inhibition of M. smegmatis planktonic growth (previous research) (M. smegmatis): did not exhibit inhibition

NC[C@H]1O[C@H](O[C@H]2O[C@H](CO)[C@@H](O)[C@H](O)[C@H]2O)[C@H](O)[C@@H](O)[C@@H]1O [6-TreNH2, (2R,3S,4S,5R,6R)-2-(aminomethyl)-6-(((2R,3R,4S,5S,6R)-3,4,5-trihydroxy-6-(hydroxymethyl)tetrahydro-2H-pyran-2-yl)oxy)tetrahydro-2H-pyran-3,4,5-triol]
inhibition of M. tuberculosis biofilm formation (M. tuberculosis biofilm): no inhibitory effect | inhibition of M. tuberculosis planktonic growth (M. tuberculosis [2]): no inhibitory effect | inhibition of M. tuberculosis planktonic growth (previous research) (M. tuberculosis [3]): did not exhibit inhibition

N[C@@H]1[C@@H](O)[C@@H](O[C@H]2O[C@H](CO)[C@@H](O)[C@H](O)[C@H]2O)O[C@H](CO)[C@H]1O [3-TreNH2, (2R,3R,4S,5S,6R)-2-(((2R,3R,4S,5S,6R)-4-amino-3,5-dihydroxy-6-(hydroxymethyl)tetrahydro-2H-pyran-2-yl)oxy)-6-(hydroxymethyl)tetrahydro-2H-pyran-3,4,5-triol]
inhibition of M. tuberculosis biofilm formation (M. tuberculosis biofilm): moderate inhibitor
